Measured values taken from article PMC9785144, “Metal Coordination and Biological Screening of a Schiff Base Derived from 8-Hydroxyquinoline and Benzothiazole” (Pharmaceutics, 2022).
Blank lines part the entries; values can stand above or below the compound they belong to.

Assays:
HCT-116 cells [1] = experiment: Wound-healing migration assay, HCT-116; assay type: cell-based, human; settings: HCT-116, 40 μM, at 22 h (control 50%)
Method: To assess cellular migration in the presence or absence of tested compounds, HCT-116 and CT-26 cells were plated at 1.5 × 10^5 and 3 × 10^5 cells/mL in a 12-well plate (1 mL/well) and were allowed to adhere and grow until reaching around 80–90% confluence. A sterile 10 μL pipette tip was used to wound the cell monolayer, followed by a washing step with PBS to remove debris. Then, cells were incubated with the tested compounds suspended in RPMI-1640 (CT-26) or DMEM media (HCT-116) supplemented with 2% FBS and 100 IU/mL of penicillin and 100 μg/mL streptomycin (Gibco, Thermo Fisher Scientific, Waltham, MA, USA), and hereafter designated as RPMI 2% and DMEM 2%, respectively. Under the above mentioned culture conditions, CT-26 cells were incubated with [Ni(HL)(acetate)] or [Ru(HL)Cl(DMSO)] at concentrations of 10 and 15 μM, respectively. […] The positive control, 5-FU, was tested at 1.5 and 40 μM for CT-26 and HCT-116, respectively. Negative control group was constituted by cells maintained in RPMI 2% (CT-26) and DMEM 2% (HCT-116). Images of the wound closure were taken beneath the stage of a Zeiss Axiovert 200 inverted microscope, using a 10× objective and a digital camera (CoolSNAP EZ, Photometrics, Huntington Beach, CA, USA) and recorded by the Metafluor Software at 0, 2, 4, 8, 18, 20 and 22 h following cell monolayer scratching (Molecular Devices, Sunnyvale, CA, USA). […]

[2] = tested on: HCT-116 colon cancer cells; experiment: MTT antiproliferative assay, HCT-116; assay type: cell-based, human; settings: Homo sapiens; HCT-116, MTT, 48 h incubation
Method: (§1) Murine colon cancer CT-26 (ATCC® CRL-263™) cells were cultured in RPMI-1640, supplemented with 10% foetal bovine serum (FBS) and 100 IU/mL of penicillin and 100 μg/mL streptomycin (Gibco, Thermo Fisher Scientific, Waltham, MA, USA), hereafter designated as complete culture medium. Human colon cancer HCT-116 (ATCC® CCL-247™), human melanoma A375 (ATCC® CCL-1619™), murine melanoma B16F10 (ATCC® CCL-6475™) cells and human epidermal keratinocytes (HaCaT) were maintained in Dulbecco’s modified Eagle’s medium (DMEM) with high-glucose (4500 mg/L) (Sigma-Aldrich, St. Louis, MO, USA), supplemented with 10% FBS and 100 IU/mL of penicillin and 100 μg/mL streptomycin (Gibco, Thermo Fisher Scientific, Waltham, MA, USA), also designated as complete culture medium. The cell lines were maintained at 37 °C in a 5% CO2 environment and cells were trypsinised every 2–3 days when 80% confluence was reached.
(§2) Negative controls were cells maintained in complete culture medium.

HCT-116 cells [3] = tested on: HCT-116 cells; parameters: method as in PMID 34389368, PMID 34562873; settings: HCT-116, concentrations around 20 μM; cited from earlier work
CT-26 colon cancer cells = experiment: MTT antiproliferative assay, CT-26; assay type: cell-based, murine; settings: Mus musculus, CT26; CT-26, MTT, 48 h incubation
Method: as §1, §2

CT-26 cells = experiment: Guava ViaCount cell viability assay; assay type: cell-based, murine; settings: CT-26, 48 h incubation
Method: CT-26 cells were incubated with [Ni(HL)(acetate)] or [Ru(HL)Cl(DMSO)] at concentrations of 5 and 10 μM or 10 and 20 μM, respectively. For the HCT-116 cell line, the tested concentrations were 5 and 7.5 μM, and 7.5 and 12.5 μM, respectively. The positive control group, 5-FU, was tested at 0.5 and 2 μM, and at 20 and 40 μM for CT-26 and HCT-116, respectively. Negative control group was constituted by cells in the presence of complete culture medium. After a 48 h incubation period, cell culture supernatants were collected, and adherent cells were detached using TrypLE™ Express (Invitrogen). Detached cells were then added to supernatants and the wells were washed using PBS with 2% FBS to recover any remaining cells. The recovered suspension was added to the previously collected cells and supernatants and centrifuged for 5 min at 650× g. The supernatants were discarded, and cells were suspended in PBS with 2% FBS. Then, on a 96-well plate, 20 μL of cell suspension was incubated with 180 μL of Guava ViaCount® reagent (Merck Millipore, Darmstadt, Germany) for 5 min at r. t. Using a Guava EasyCyte 5HT Flow cytometer (Guava Technologies, Inc., Hayward, CA, USA), data were collected and analysed with the ViaCount software module with the acquisition of 10,000 events per sample. GraphPad Prism®8 was used to analyse cell proliferation (GraphPad Software, San Diego, CA, USA). […]

cancer cells = settings: in vitro; cited from earlier work
HCT-116 cell line = tested on: HCT-116 cell line; parameters: method as in PMID 26961176; settings: cited from earlier work
[4] = Stability in PBS pH 7.4 without and with BSA (UV-vis); assay type: physicochemical; settings: PBS pH 7.4, 25 °C, <1% DMSO, without BSA
Method: The complexes were monitored for their stability in PBS, pH 7.4 at 25 °C in the absence and presence of equimolar amounts of bovine serum albumin (BSA). Stock solutions of each complex were prepared in DMSO and then diluted in PBS in order to obtain final concentrations of 20 to 30 µM and ensuring that the organic solvent was less than 1% (v/v). For the assays with BSA, stock solutions of the protein were prepared in PBS using 20 mg of lyophilised powder in 5 mL solvent, which were allowed to hydrate for 24 h in the refrigerator. Samples were monitored by UV-vis absorption spectroscopy for 6 h and a final measurement was also taken after 24 h.

[5] = molecular target: bovine serum albumin (BSA) (Bos taurus, UniProt P02769); experiment: Albumin binding by fluorescence quenching and circular dichroism; settings: BSA ca. 20–25 μM, bands centred at ca. 360 nm, compound 5 to 70 μM
Method: The concentration of BSA in the experiments was ca. 1.5 μM (in aqueous PBS). The fluorescence emission spectra were recorded between 310 and 575 nm, with λex = 295 nm. Successive additions of the complexes were done directly to the cuvette (optical path 1 cm) and the fluorescence emission spectra were recorded for each one under the same conditions. Blank assays for each sample, consisting in solutions with the same concentration of complex and no BSA, were recorded and subtracted to the corresponding emission spectra containing the fluorophore. The UV-vis spectra of the sample solutions were used to correct the emission spectra, minimizing inner filter and reabsorption phenomena interference.
The concentration of BSA in the experiments was ca. 20–25 μM (in aqueous PBS). The circular dichroism (CD) spectra are an average of three scan accumulations, recorded between 300 and 500 nm, with bandwidth of 1 nm and response of 2 s, using a scanning speed of 100 nm/min. Successive additions of the complexes stock solutions in DMSO were done directly to the cuvette (1 cm) and the CD spectra were recorded under the same conditions after 10 min equilibration. Induced CD spectra were obtained as the CD spectrum of compound-BSA mixture minus the CD spectrum of BSA alone and are expressed as ellipticity in millidegrees.

bovine serum albumin (BSA), sequence (P02769 25-607): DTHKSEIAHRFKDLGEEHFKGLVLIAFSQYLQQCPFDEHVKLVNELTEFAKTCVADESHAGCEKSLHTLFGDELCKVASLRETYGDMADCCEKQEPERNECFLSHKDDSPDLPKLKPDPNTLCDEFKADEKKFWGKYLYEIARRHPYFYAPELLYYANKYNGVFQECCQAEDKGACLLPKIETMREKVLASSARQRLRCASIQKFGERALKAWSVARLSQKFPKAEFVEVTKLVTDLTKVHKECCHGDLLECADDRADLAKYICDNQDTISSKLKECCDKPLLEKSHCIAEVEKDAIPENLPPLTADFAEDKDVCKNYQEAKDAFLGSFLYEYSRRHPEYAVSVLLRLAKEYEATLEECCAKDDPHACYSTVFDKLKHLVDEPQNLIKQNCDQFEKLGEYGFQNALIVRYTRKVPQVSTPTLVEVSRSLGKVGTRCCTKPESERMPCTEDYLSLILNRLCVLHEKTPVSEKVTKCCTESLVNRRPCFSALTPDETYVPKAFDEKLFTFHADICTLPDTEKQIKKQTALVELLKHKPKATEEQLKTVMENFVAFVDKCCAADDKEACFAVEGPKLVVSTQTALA

- IC50 [2]: 43.8 ± 2.3 µM
- IC50 (CT-26 colon cancer cells): 2.7 ± 1.9 µM
Compound: O=c1[nH]cc(F)c(=O)[nH]1 [5-FU, 5-fluorouracil, reference compound]
- maximum wound closure (HCT-116 cells [1]): 39%
- cell cycle arrest (HCT-116 cells [3]): arrested cell cycle at S phase
- cell viability by Guava ViaCount (CT-26 cells): higher percentage of dead and apoptotic cells

Compound: CS(C)=O.[Cl-].[Cl-].[Cl-].[Cl-].[Ru+3].c1c[nH+]c[nH]1.c1c[nH]cn1 [NAMI-A]
- cytotoxicity against cancer cells (cancer cells): minimal cytotoxicity
- fold lower activity than cisplatin (cancer cells): 1000 fold
- effect on cell adhesion and migration (HCT-116 cell line): inhibitory effect in reducing cell adhesion and migration

- induced CD bands with BSA [5]: high intensity induced CD bands
Compound: [O]=[V]([O]c1cccc2ccc(/C=N/Nc3nc4ccccc4s3)nc12)[O]c1cccc2ccc(/C=N/Nc3nc4ccccc4s3)nc12 [[VO(HL)2]]
- solubility and stability in PBS buffered solutions [4]: oxidation of the metal centre likely takes place
